Consider four compounds from PMC12198292, “Advancing in vitro assessment of iodide uptake inhibition: integrating a novel biotransformation pretreatment step” (Archives of Toxicology, 2025).

Structures are written as SMILES. Where “and” joins values, the source holds several entries; their conditions need not be identical. Equal entries are not always repeated. Where two headings read alike, the source gives them in different places.

For data set [1], the target named is T1, human NIS (Homo sapiens, UniProt Q92911).
T1 sequence (Q92911 1-643): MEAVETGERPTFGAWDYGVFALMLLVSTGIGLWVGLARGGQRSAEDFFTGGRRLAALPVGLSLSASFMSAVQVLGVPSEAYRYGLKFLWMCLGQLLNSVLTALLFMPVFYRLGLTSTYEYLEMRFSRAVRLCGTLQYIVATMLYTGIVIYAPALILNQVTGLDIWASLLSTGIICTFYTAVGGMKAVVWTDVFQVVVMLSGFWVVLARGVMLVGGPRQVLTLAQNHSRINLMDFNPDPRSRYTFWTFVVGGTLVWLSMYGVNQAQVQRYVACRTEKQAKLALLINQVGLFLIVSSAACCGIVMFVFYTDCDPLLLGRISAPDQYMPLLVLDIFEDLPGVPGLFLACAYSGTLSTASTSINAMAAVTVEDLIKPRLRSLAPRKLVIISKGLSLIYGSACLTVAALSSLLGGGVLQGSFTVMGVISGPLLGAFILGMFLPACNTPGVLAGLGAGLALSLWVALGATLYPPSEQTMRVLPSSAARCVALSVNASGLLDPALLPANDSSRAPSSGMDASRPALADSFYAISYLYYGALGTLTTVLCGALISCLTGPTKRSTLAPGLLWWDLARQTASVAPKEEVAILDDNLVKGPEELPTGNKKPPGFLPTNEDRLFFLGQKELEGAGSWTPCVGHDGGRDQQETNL
Nature of the data set: NIS-inhibition assay (iodide uptake, Sandell–Kolthoff reaction) on HEK293T NIS 02. The format is cell-based. Details: host or cells: HEK293T (lentiviral transduction, puromycin selection, GFP sorting; lines NIS 02 and NIS C).

Data set [2] is described as follows: in vitro. The following applies: human.
Data set [3] has as its target T1, human NIS. As to the kind of experiment: Biotransformation (BTS, rat S9)-augmented NIS-inhibition assay, HEK293T NIS02. Particulars: for effect of fully active BTS (W/S9, W/cof) on NIS inhibition versus control setups: two-way ANOVA, p < 0.05.
The target of data set [4] is T1, human NIS. Details: host or cells: HEK293T (lentiviral transduction, puromycin selection, GFP sorting; lines NIS 02 and NIS C). Particulars: cited from earlier work; for IC20: read-out: Data from literature NIS IC20; for IC50: read-out: Data from literature NIS IC50.
The subject of another data set is HEK293T NIS02 cells. Nature of the data set: Neutral red uptake viability assay, HEK293T NIS02.
For data set [5], the target named is T1, human NIS. As to the kind of experiment: NIS-inhibition assay (iodide uptake, Sandell–Kolthoff reaction) on HEK293T NIS C. Details: host or cells: HEK293T (lentiviral transduction, puromycin selection, GFP sorting; lines NIS 02 and NIS C). It is filed as cell-based.
Data set [6] addresses T2, NIS (Rattus norvegicus, UniProt Q63008).
T2 construct: the endogenously NIS-expressing rat FRTL-5 cell line; host or cells: FRTL-5 (CVCL_0265)
T2 sequence (Q63008 1-618): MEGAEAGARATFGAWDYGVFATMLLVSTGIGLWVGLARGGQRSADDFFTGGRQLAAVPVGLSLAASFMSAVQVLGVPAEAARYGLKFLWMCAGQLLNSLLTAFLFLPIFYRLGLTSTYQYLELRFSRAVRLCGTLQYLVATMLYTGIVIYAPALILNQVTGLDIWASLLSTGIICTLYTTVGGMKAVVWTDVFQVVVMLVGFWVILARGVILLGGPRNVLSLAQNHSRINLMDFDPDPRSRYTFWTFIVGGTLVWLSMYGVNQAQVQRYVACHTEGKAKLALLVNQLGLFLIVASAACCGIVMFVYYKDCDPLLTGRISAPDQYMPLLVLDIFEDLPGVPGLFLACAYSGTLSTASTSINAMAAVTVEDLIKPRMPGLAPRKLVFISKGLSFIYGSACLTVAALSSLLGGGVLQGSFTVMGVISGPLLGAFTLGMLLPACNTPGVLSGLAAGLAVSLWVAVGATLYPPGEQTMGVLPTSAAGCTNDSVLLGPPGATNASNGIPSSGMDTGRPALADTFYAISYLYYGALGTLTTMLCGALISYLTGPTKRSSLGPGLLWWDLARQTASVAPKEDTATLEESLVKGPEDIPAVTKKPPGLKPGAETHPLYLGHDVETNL
Nature of the data set: NIS-inhibition assay (iodide uptake, Sandell–Kolthoff reaction) on FRTL-5. Particulars: mean ± SD, ≥ 3 independent experiments; 2 h exposure; SK reaction. The format is cell-based.

Data set [7] has as its target T2, NIS. Particulars: FRTL-5, SK, read-out: Data from literature NIS IC50, cited from earlier work.
A further data set concerns hNIS. Details: method as in Concilio et al., 2020. Particulars: HeLa transfected with hNIS; RAIU; ref Concilio et al., 2020; read-out: Data from literature NIS IC50; cited from earlier work.
For data set [8] the following is noted: ref PubChem https://pubchem.ncbi.nlm.nih.gov/; cited from earlier work.
A further data set has as its system zebrafish NIS. Details: method as in Concilio et al., 2020. Particulars: HeLa transfected with zebrafish NIS; RAIU; ref Concilio et al., 2020; read-out: Data from literature NIS IC50; cited from earlier work.
The target of data set [9] is T1, human NIS. Details: host or cells: HEK293T (lentiviral transduction, puromycin selection, GFP sorting; lines NIS 02 and NIS C); method as in Dong et al., 2019. The following applies: hNIS-HEK293T-EPA, SK, ref Dong et al., 2019, cited from earlier work.
The test system of the next data set is whale NIS. Details: method as in Concilio et al., 2020. Particulars: HeLa transfected with whale NIS; RAIU; ref Concilio et al., 2020; read-out: Data from literature NIS IC50; cited from earlier work.
The target of data set [10] is T2, NIS. The following applies: FRTL-5, RAIU, read-out: Data from literature NIS IC50, cited from earlier work.
Data set [11] addresses T1, human NIS. Details: method as in Dong et al., 2019. The following applies: MCF7hNIS, SK, ref Dong et al., 2019, cited from earlier work.
Data set [12] can be described thus: in vitro. The following applies: rat, FRTL-5 cells.
Data set [13] can be described thus: in vitro. Particulars: human, HEK293T NIS C cells.
The target of data set [14] is T1, human NIS.
On the set-up of data set [15]: method as in PubChem https://pubchem.ncbi.nlm.nih.gov/. Particulars: ref PubChem https://pubchem.ncbi.nlm.nih.gov/; cited from earlier work.
Details of data set [16]: method as in PubChem https://pubchem.ncbi.nlm.nih.gov/. The following applies: ref PubChem https://pubchem.ncbi.nlm.nih.gov/; cited from earlier work. This is another data set of the same source.
The subject of another data set is HEK293T NIS C cells. As to the kind of experiment: Neutral red uptake viability assay, HEK293T NIS C. The following applies: read-out: NR IC20 HEK293T NISC, mean±SD, 2 h exposure.
The test system of another data set is FRTL-5 cells. Nature of the data set: Neutral red uptake viability assay, FRTL-5. Particulars: read-out: NR IC20 FRTL-5, mean±SD, 2 h exposure.
The mark [17] stands for this setting: mean ± SD, ≥ 3 independent experiments, 2 h exposure, SK reaction, read-out: NIS IC50 HEK293T NIS 02.
Where [18] appears, read: read-out: Data from literature NIS IC20.
Where [19] appears, read: read-out: Data from literature NIS IC50.
Setting [20] is: hNIS-HEK293T-EPA, RAIU, ref Dong et al., 2019.
Setting [21] is: hNIS-HEK293T-EPA, RAIU, ref Hallinger et al., 2017.
[22] abbreviates: mean ± SD, ≥ 3 independent experiments, 2 h exposure, SK reaction, read-out: NIS IC50 HEK293T NIS C.
Where [23] appears, read: hNIS-HEK293T-EPA, RAIU, ref US-EPA, 2024.

Turning to `Oc1cc(Cl)ccc1Oc1ccc(Cl)cc1Cl` [TCS, Triclosan], the IC50 (usually the midpoint of a concentration-inhibition curve) was 18.5 ± 9.9 µM on human NIS [1] (NIS IC50 HEK293T NIS 02); 34.8 ± 23.5 µM against human NIS [5]; 39.3 ± 18.9 µM against NIS [6]; 21.3 µM on NIS [7] (ref Wu et al., 2016). In “in vitro [2]”, this compound had an IC20 at 2 h of 45.9 µM. Moreover, the “increase of IC20 by preincubation in fully active BTS setup compared to the denatured BTS setup” value on human NIS [3] was “approximately 5 fold”. The IC20 is 1.07 ± 0.65 µM on human NIS [3] (read-out: NIS inhibition IC20 D S9, W/cof, 5 h preincubation with denatured S9 and cofactors, three independent experiments); 1.78 ± 1.12 µM at human NIS [3] (read-out: NIS inhibition IC20 SM); 1.02 ± 0.82 µM on human NIS [3] (read-out: NIS inhibition IC20 W/O S9, W/cof, 5 h preincubation without S9 fraction, with all cofactors, three independent experiments); 2.6 µM on human NIS [4]. In addition, the “effect of fully active BTS (W/S9, W/cof) on NIS inhibition versus control setups” value (shortened to “effect … on NIS inhibition versus control setups”) at human NIS [3] is on record as “statistically significant reduction in NIS inhibition”. For the same compound, the “cytotoxicity in the standard NIS assay (NR and CTG)” value with HEK293T NIS02 cells (100 µM) is listed as “cytotoxic”.

Turning to `[O-][Cl+3]([O-])([O-])O` [PCL, Perchlorate, reference compound], the concentration for half-maximal inhibition (IC50) is 1.6 µM and 1.56 µM in the data set with hNIS; 1.65 ± 0.57 µM at human NIS [1] (setting [17]); 0.08 µM in the data set with zebrafish NIS; 0.8 µM at human NIS [9] (setting [19]); 4.6 µM and 4.59 µM in the data set with whale NIS; 0.2 µM on NIS [10] (ref Buckalew et al., 2020). In addition, the IC50 at NIS [10] (ref Waltz et al., 2010) was 0.14 µM; on human NIS [4] (setting [20]) it was 0.53 µM; at human NIS [11] (setting [19]), 0.5 µM; on human NIS [5] (setting [22]) it was 14.9 ± 8.3 µM; on NIS [6], 5.1 ± 4.6 µM; on NIS [7] (ref Waltz et al., 2010) it was 0.1 µM. Further, at NIS [7] (ref Wu et al., 2016), the IC50 was 0.3 µM. For the same compound, the solubility in water in [8] is over 2000 mg/mL. Also, the IC20 at human NIS [9] (setting [18]) was 0.2 µM; at human NIS [4] (setting [20]), 0.1 µM; at human NIS [4] (setting [21]) it was 0.2 µM; on human NIS [11] (setting [18]), 0.2 µM. Besides, the “effect … on NIS inhibition versus control setups” value at human NIS [3] is reported as “no significant differences were observed”.

For `CC(C)(c1ccc(O)cc1)c1ccc(O)cc1` [BPA, Bisphenol A], the IC20 at 2 h in the data set “in vitro [12]” is 364 µM; in the data set “in vitro [13]”, 181 µM. The IC50 at human NIS [1] (setting [17]) was 111 ± 75 µM; at human NIS [5] (setting [22]), 309 ± 2.5 µM; against NIS [6], 302 ± 197 µM; at NIS [7] (ref Wu et al., 2016), 112 µM. In addition, the “increase of IC20 by preincubation in fully active BTS setup compared to the denatured BTS setup” value at human NIS [3] (W/S9, W/cof vs D S9, W/cof) is given as about 6.3 fold. The IC20 was 4.7 ± 6 µM at human NIS [3] (read-out: NIS inhibition IC20 SM, standard method without preincubation, run in parallel, three independent experiments); 35.5 µM on human NIS [4] (setting [21]); 24.3 ± 21.6 µM on human NIS [4] (setting [23]); 19.5 µM on human NIS [4] (hNIS-HEK293T-EPA, RAIU, ref Wang et al., 2019). Besides, the “effect … on NIS inhibition versus control setups” value on human NIS [14] is given as “statistically significant reduction in NIS inhibition”. In data set [15], the “log Kow” value was 3.32. Also, the “Data from literature NIS IC50” value at human NIS [4] (hNIS-HEK293T-EPA, RAIU, ref Wang et al., 2018) is “n.e”. Also, the “Henry‘s law” value in data set [16] was 4.0x10^-11 atm- m^3/mol.

With `CC(C)(c1cc(Br)c(O)c(Br)c1)c1cc(Br)c(O)c(Br)c1` [TBBPA, Tetrabromobisphenol A], the IC20 with HEK293T NIS C cells is 57.6 µM; in the data set on FRTL-5 cells, 33.4 µM; with HEK293T NIS02 cells (read-out: NR IC20 HEK293T NIS02, viability, neutral red assay, mean±SD, 2 h exposure) it was 66.8 µM. Moreover, the IC50 is 30.1 ± 11.8 µM at human NIS [1] (setting [17]), 91.1 µM on human NIS [4] (setting [23]), 54 ± 27.1 µM on human NIS [5] (setting [22]) and 91.8 ± 10.8 µM against NIS [6]. Further, the “log Kow” value in data set [15] is listed as 4.75. In addition, the “Henry‘s law” value in data set [16] is listed as 2.0x10^-7 atm- m^3/mol.
